Assay results from the NIST ThermoML archive (doi:10.1021/je8002817).
Numbers after ± are expanded uncertainties.

Details: Liquid

CCCC[N+]1(C)CCCC1.O=S(=O)([N-]S(=O)(=O)C(F)(F)F)C(F)(F)F
Details	mass density [kg/m3]
293.49 K, 101.33 kPa	1398 ± 1.6
293.5 K, 10000 kPa	1404 ± 1.5
293.5 K, 20000 kPa	1409.8 ± 1.9
293.5 K, 30000 kPa	1415.5 ± 2.3
293.5 K, 40000 kPa	1421 ± 2.8
293.51 K, 1000 kPa	1398.6 ± 1.2
293.51 K, 5000 kPa	1401 ± 1.4
302.66 K, 101.33 kPa	1390.1 ± 1.5
312.62 K, 101.33 kPa	1381.5 ± 1.5
322.31 K, 10000 kPa	1379.7 ± 1.5
322.31 K, 20000 kPa	1386 ± 1.9
322.31 K, 40000 kPa	1398.2 ± 2.6
322.32 K, 5000 kPa	1376.4 ± 1.3
322.32 K, 30000 kPa	1392.2 ± 2.2
322.33 K, 1000 kPa	1373.8 ± 1.2
322.35 K, 101.33 kPa	1373.2 ± 1.5
332.63 K, 101.33 kPa	1364.3 ± 1.5
342.54 K, 101.33 kPa	1355.9 ± 1.5
352.31 K, 20000 kPa	1361.5 ± 1.8
352.31 K, 40000 kPa	1374.5 ± 2.5
352.32 K, 101.33 kPa	1347.5 ± 1.4
352.32 K, 10000 kPa	1354.5 ± 1.4
352.33 K, 5000 kPa	1351 ± 1.3
352.33 K, 30000 kPa	1368.1 ± 2.1
352.35 K, 1000 kPa	1348.1 ± 1.2
373.31 K, 5000 kPa	1333.2 ± 1.3
373.31 K, 30000 kPa	1351.3 ± 2.1
373.32 K, 1000 kPa	1330.1 ± 1.2
373.33 K, 101.33 kPa	1329.5 ± 1.4
373.33 K, 10000 kPa	1337 ± 1.4
373.34 K, 20000 kPa	1344.2 ± 1.7
373.34 K, 40000 kPa	1358 ± 2.4
391.26 K, 1000 kPa	1314.9 ± 1.2
391.29 K, 10000 kPa	1322 ± 1.4
391.29 K, 30000 kPa	1337 ± 2
391.3 K, 101.33 kPa	1314.1 ± 1.4
391.3 K, 5000 kPa	1318.1 ± 1.3
391.32 K, 20000 kPa	1329.6 ± 1.7
391.32 K, 40000 kPa	1344 ± 2.4
414.93 K, 101.33 kPa	1293.9 ± 1.3
414.93 K, 5000 kPa	1298.1 ± 1.2
414.93 K, 10000 kPa	1302.4 ± 1.4
414.93 K, 20000 kPa	1310.5 ± 1.6
414.93 K, 30000 kPa	1318.1 ± 1.9
414.93 K, 40000 kPa	1325.6 ± 2.3
414.94 K, 1000 kPa	1294.7 ± 1.2

CCCC[N+](C)(C)C.O=S(=O)([N-]S(=O)(=O)C(F)(F)F)C(F)(F)F [butyltrimethylammonium bis(trifluoromethylsulfonyl)imide]
Details	mass density [kg/m3]
293.48 K, 101.33 kPa	1396.3 ± 1.6
293.48 K, 1000 kPa	1396.8 ± 1.2
293.49 K, 5000 kPa	1398.8 ± 1.3
293.5 K, 40000 kPa	1416.7 ± 2.7
293.51 K, 10000 kPa	1401.4 ± 1.5
293.51 K, 20000 kPa	1406.6 ± 1.9
293.51 K, 30000 kPa	1411.7 ± 2.3
302.84 K, 101.33 kPa	1387.9 ± 1.5
312.82 K, 101.33 kPa	1379 ± 1.5
322.29 K, 5000 kPa	1373.5 ± 1.3
322.31 K, 20000 kPa	1382.2 ± 1.8
322.32 K, 10000 kPa	1376.4 ± 1.5
322.32 K, 40000 kPa	1393.2 ± 2.6
322.33 K, 101.33 kPa	1370.5 ± 1.5
322.33 K, 30000 kPa	1387.7 ± 2.2
322.34 K, 1000 kPa	1371.1 ± 1.2
332.75 K, 101.33 kPa	1361.3 ± 1.5
342.67 K, 101.33 kPa	1352.5 ± 1.5
352.27 K, 20000 kPa	1356.9 ± 1.8
352.29 K, 10000 kPa	1350.5 ± 1.4
352.3 K, 5000 kPa	1347.3 ± 1.3
352.32 K, 40000 kPa	1369.1 ± 2.5
352.34 K, 30000 kPa	1363 ± 2.1
352.36 K, 101.33 kPa	1343.9 ± 1.4
352.36 K, 1000 kPa	1344.6 ± 1.2
373.28 K, 5000 kPa	1328.9 ± 1.2
373.3 K, 10000 kPa	1332.4 ± 1.4
373.3 K, 20000 kPa	1339.2 ± 1.7
373.31 K, 101.33 kPa	1325.5 ± 1.4
373.31 K, 30000 kPa	1345.8 ± 2
373.33 K, 1000 kPa	1326.2 ± 1.1
373.35 K, 40000 kPa	1352.3 ± 2.4
391.25 K, 30000 kPa	1331.2 ± 2
391.26 K, 10000 kPa	1316.9 ± 1.4
391.27 K, 1000 kPa	1310.5 ± 1.1
391.28 K, 101.33 kPa	1309.7 ± 1.4
391.28 K, 20000 kPa	1324.2 ± 1.7
391.31 K, 5000 kPa	1313.1 ± 1.2
391.31 K, 40000 kPa	1338.1 ± 2.3
414.89 K, 30000 kPa	1312.1 ± 1.9
414.92 K, 40000 kPa	1319.5 ± 2.2
414.93 K, 101.33 kPa	1288.6 ± 1.3
414.94 K, 5000 kPa	1292.5 ± 1.2
414.94 K, 10000 kPa	1296.6 ± 1.3
414.94 K, 20000 kPa	1304.5 ± 1.6
414.95 K, 1000 kPa	1289.4 ± 1.1
